Results from US20080051388A1, “Novel Compounds That Inhibit Factor Xa Activity” (Morphochem Aktiengesellschaft Fur Kombinatorische Chemie, priority 2004, published 2008).

Biological target: factor Xa (Homo sapiens, UniProt P00742)
Test: Inhibitory action towards factor Xa activity (methods of WO0216312)
Assay type: biochemical
Conditions: read-out: IC50 value (factor Xa inhibition)
Method: Determinations of the inhibitory action towards factor Xa activity were carried out in accordance with the methods described in WO0216312.

Sequence of factor Xa (P00742 235-488 limits assumed): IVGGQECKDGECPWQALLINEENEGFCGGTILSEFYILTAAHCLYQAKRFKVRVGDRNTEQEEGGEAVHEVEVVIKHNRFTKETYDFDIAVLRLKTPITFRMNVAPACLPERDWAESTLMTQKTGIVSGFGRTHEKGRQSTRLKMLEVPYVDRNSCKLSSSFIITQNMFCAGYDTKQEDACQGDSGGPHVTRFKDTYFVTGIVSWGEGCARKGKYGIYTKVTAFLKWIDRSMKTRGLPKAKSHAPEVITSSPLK
Sequence of factor Xa (P00742 41-179 partner limits assumed): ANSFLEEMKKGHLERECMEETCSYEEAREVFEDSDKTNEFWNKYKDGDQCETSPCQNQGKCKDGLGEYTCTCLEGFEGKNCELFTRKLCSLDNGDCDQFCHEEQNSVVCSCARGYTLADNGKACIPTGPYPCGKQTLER

Q: Which IC50 does the source give for CN1CCN(C(=O)CNC(=O)C(Nc2cccc(C(=N)N)c2)c2ccccc2O[C@@H]2O[C@H](CO)[C@@H](O)[C@H](O)[C@H]2O)CC1 (single isomer, unassigned) [Example 1, 2-(3-Carbamimidoyl-phenylamino)-N-[2-(4-methyl-piperazin-1-yl)-2-oxo-ethyl]-2-[2-(3,4,5-trihydroxy-6-hydroxymethyl-tetrahydro-pyran-2-yloxy)-phenyl]-acetamide] here?
A: 0.1 to 10 nM
